Experimental data reported in PubChem BioAssay (NCI).
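Compound exposure: 48 hours, 5 concentrations, 96-well plates. The concentration for 50% growth inhibition is given as GI50. Definition used: TGI = concentration required for complete inhibition of growth.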

Tests used:
Test in all cases: NCI tumour cell line growth inhibition, 48 h
[1] = system: MCF7 breast
[2] = system: NCI/ADR-RES ovarian
[3] = system: HS 578T breast
[4] = system: T-47D breast
[5] = system: MDA-MB-435

Row | Structure (SMILES) | GI50 [1] [µM] | TGI [1] [µM] | GI50 [2] [µM] | TGI [2] [µM] | GI50 [3] [µM] | TGI [3] [µM] | GI50 [4] [µM] | TGI [4] [µM] | GI50 [5] [µM] | TGI [5] [µM]
1 | CC(C)(C)c1ccc(NC(=O)c2cc(=O)c3ccccc3[nH]2)c(C(C)(C)C)c1O | 3.35 | 12.9 | 9.11 | 24.4 | 6.46 | 39 | 7.49 | 21.9 | 4.92 | 17.7
2 | O=C(O)C1(C(=O)O)CCN(S(=O)(=O)c2ccccc2)CC1 |  | > 100 |  | > 100 |  | > 100 |  | > 100 |  | > 100
3 | O=C(/C=C/c1ccccc1)c1ccc(O)c(CN2CCN(c3cc4c(cc3F)c(=O)c(C(=O)O)cn4C3CC3)CC2)c1 | 0.688 | > 100 | 7.86 | > 100 | 0.577 | > 100 | 1.77 | > 100 | 1.5 | 25.7
4 | CC(=O)c1ccc(NCn2nc(-c3ccccc3O)oc2=S)cc1 | > 100 | > 100 | > 100 | > 100 | > 100 | > 100 | 85.9 | > 100 | > 100 | > 100
5 | O=C(Oc1ccccc1Cl)c1cccnc1Nc1ccnc(C(F)(F)F)c1 | 3.66 | 17.5 | 16.5 | 62.8 | 17.3 | 48.9 | 29.4 | > 100 | 4.53 | 18.3
6 | CC(=O)OC1CC(C)c2c1ncnc2N1CCN(C(=O)OC(C)(C)C)CC1 (stereo not given) | 39.1 | > 100 | 67.6 | > 100 | 83.5 | > 100 | 54 | > 100 | 19.8 | 41
7 | C[C@]1(O)CC(=O)[C@]2(O)C3=C(C=C[C@]2(O)C1)C(=O)c1c(O)cccc1C3=O |  |  | 5.84 | 40.3 | 2.74 | 14.7 | 1.85 | 4.57 | 1.85 | 3.44
8 | CC(C)NCCCNC1=C(Cl)C(=O)c2ccccc2C1=O | 4.13 | 17.5 | 12 | 28.6 | 2.93 | 9.02 | 8.02 | 33.8 | 2.1 | 4.07
9 | COc1cc2c(C#N)n3c(c2cc1OC)C(=O)C(c1ccccc1)Oc1ccccc1-3 (stereo not given) |  |  | 3.05 | > 100 | 4.62 | 65.5 |  |  |  | 
10 | COc1ccc(OC)c(-c2cn3nc(-c4c[nH]c5ccc(Br)cc45)sc3n2)c1 | 1.77 | 5.13 | 3.38 | 10.9 | 2.87 | 14.5 |  |  | 2.42 | 5.83
11 | CCCCn1c(=O)c(/C=C/C(=O)/C=C/c2ccc(O)c(OC)c2)cc2ccc(Cl)cc21 | 1.88 | 10.8 | 2.9 | 10.7 | 3.18 | 14.8 | 1.85 | 6.28 | 1.77 | 4.17
